By IC50 is commonly meant the concentration that gives 50% inhibition.

This test has as its target T1, recombinant autotaxin (Homo sapiens, UniProt Q13822).
T1 construct: made in house; host or cells: Hi5 insect cells (baculovirus)
In words: Autotaxin test (enzyme test), Amplex Red fluorescence with LPC substrate. It is filed as biochemical. The conditions noted are these: autotaxin inhibition (enzyme test); for remaining activity at 10 µM: 10 μM compound, read-out: % Control at 10 μM. Summed up: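 Activity was inferred from H2O2 made from released choline, detected as Amplex Red/peroxidase fluorescence (485 nm excitation, 612 nm emission, kinetic read). Beforehand, Hi5-expressed autotaxin sat with compound 30 min at 22° C, then hydrolysed 75 μM final LPC for 90 min at 37° C, pH 8 Tris buffer.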

Take `O=C([C@@H]1CCCN1C1CCNCC1)N1CCN2C(=O)c3cc(-c4ccc(Cl)cc4F)ccc3N(CCN3CCOCC3)C(=O)[C@H]2C1` [Compound A153]: the remaining activity at 10 µM came to 21% and the half-maximal inhibitory concentration (IC50) is greater than 1 µM.

Turning to `CN1CCN(C(=O)CN2C(=O)[C@H]3CN(C(=O)[C@@H]4CCCN4C4CCNCC4)CCN3C(=O)c3cc(-c4ccc(Cl)cc4F)ccc32)CC1` [Compound A154], the remaining activity at 10 µM was found to be 27% and the IC50 is greater than 1 µM.

Regarding `NC(=O)CN1C(=O)[C@H]2CN(C(=O)[C@@H]3CCCN3C3CCNCC3)CCN2C(=O)c2cc(-c3ccc(Cl)cc3F)ccc21` [Compound A155], the remaining activity at 10 µM turned out to be 10% and the IC50 was in the range of 0.1 to 1 µM.

For `CN(C)CCN1C(=O)[C@H]2CN(C(=O)[C@@H]3CCCN3C3CCNCC3)CCN2C(=O)c2cc(-c3ccc(Cl)cc3F)ccc21` [Compound A156], the remaining activity at 10 µM stood at 7% and the 50% inhibitory concentration (IC50) is 0.1 to 1 µM.

As to `CC(C)(C)CC(=O)N1CCN2C(=O)c3cc(-c4ccc(Cl)cc4F)ccc3N(CCC3CCNCC3)C(=O)[C@H]2C1` [Compound A157], the remaining activity at 10 µM was 2% and the IC50 fell in the range of 0.1 to 1 µM.

Turning to `O=C([C@@H]1CCCN1C1CCNCC1)N1CCN2C(=O)c3cc(-c4ccc(Cl)cc4F)ccc3N(CCC3CCNCC3)C(=O)[C@H]2C1` [Compound A158], the remaining activity at 10 µM was 21% and the IC50 is greater than 1 µM.

Consider `O=C([C@@H]1CCCN1C1CCNCC1)N1CCN2C(=O)c3cc(-c4ccc(Cl)cc4F)ccc3N(CCO)C(=O)[C@H]2C1` [Compound A159], for which the remaining activity at 10 µM came to 16% and the IC50 is greater than 1 µM.

Regarding `CC(C)(C)CC(=O)N1CCN2C(=O)c3cc(-c4ccc(Cl)cc4F)ccc3N(CCO)C(=O)[C@@H]2C1` [Compound A160], the remaining activity at 10 µM amounted to 2% and the IC50 lay in the range of 0.1 to 1 µM.

With `CC(C)(C)CC(=O)N1CCN2C(=O)c3cc(-c4ccc(Cl)cc4F)ccc3N(CCN3CCOCC3)C(=O)[C@@H]2C1` [Compound A161], the remaining activity at 10 µM is 3% and the IC50 lay in the range of 0.1 to 1 µM.

As for `CN1CCN(C(=O)CN2C(=O)[C@@H]3CN(C(=O)CC(C)(C)C)CCN3C(=O)c3cc(-c4ccc(Cl)cc4F)ccc32)CC1` [Compound A162], the remaining activity at 10 µM was 30% and the IC50 is greater than 1 µM.

On to `CN(C)CCN1C(=O)[C@@H]2CN(C(=O)CC(C)(C)C)CCN2C(=O)c2cc(-c3ccc(Cl)cc3F)ccc21` [Compound A163], for which the remaining activity at 10 µM was found to be 10% and the IC50 was greater than 1 µM.

As to `O=C([C@@H]1CCCN1C1CCNCC1)N1CCN2C(=O)c3cc(-c4ccc(Cl)cc4F)ccc3N(CCC3CCNCC3)C(=O)[C@@H]2C1` [Compound A164], the remaining activity at 10 µM was found to be 12% and the concentration for half-maximal inhibition (IC50) was greater than 1 µM.

Regarding `CC(C)(C)CC(=O)N1CCN2C(=O)c3cc(-c4ccc(Cl)cc4)ccc3N(CCO)C(=O)C2C1` (stereo not drawn) [Compound A165], the remaining activity at 10 µM is -20% and the IC50 lay within 0.1 to 1 µM.

Take `CN1CCC(N2C(=O)C3CN(C(=O)CC(C)(C)C)CCN3C(=O)c3cc(-c4ccc(Cl)cc4F)ccc32)CC1` (stereo not drawn) [Compound A166]: the remaining activity at 10 µM stood at 10% and the half-inhibitory concentration (IC50) is greater than 1 µM.

Turning to `O=C1Nc2ccc(-c3ccc(Cl)cc3)cc2C(=O)N2CCN(C(=O)Oc3ccccc3)CC12` (stereo not drawn) [Compound A167], the remaining activity at 10 µM came out at 26% and the half-inhibitory concentration (IC50) was greater than 1 µM.

With `CC(C)(C)COC(=O)N1CCN2C(=O)c3cc(-c4ccc(Cl)cc4)ccc3NC(=O)C2C1` (stereo not drawn) [Compound A168], the remaining activity at 10 µM amounted to 52% and the IC50 is greater than 1 µM.

Take `CC(C)CS(=O)(=O)N1CCN2C(=O)c3cc(-c4ccc(Cl)cc4F)ccc3NC(=O)[C@H]2C1` [Compound A173]: the remaining activity at 10 µM came to 1% and the IC50 lay within 0.1 to 1 µM.

As for `O=C1Nc2ccc(-c3ccc(Cl)cc3F)cc2C(=O)N2CCN(S(=O)(=O)CC3CCCCC3)C[C@H]12` [Compound A174], the remaining activity at 10 µM is 21% and the IC50 was 0.1 to 1 µM.

These data come from patent publication US20120115852A1, “HETEROCYCLIC COMPOUNDS AS AUTOTAXIN INHIBITORS” (Merck Patent Gesellschaft Mit Beschrankter Haftung, priority 2009, published 2012).
